Here are results for 27 molecules from patent US20240246935A1 (Plexium, Inc., priority 2021, published 2024).

Experiment [1] concerns IKZF2 (Helios). Briefly: IKZF2 reporter degradation assay (HEK 293T IKZF2-mNeonGreen reporter cell line). The following applies: 1 μM compound, 24 hour incubation, HEK 293T IKZF2-mNeonGreen reporter. The format is cell-based, human. In a few lines: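 HEK 293T lines stably expressing each IKZF-GGGGS×3-mNeonGreen-P2A-mScarlet reporter, 4000 cells/well in FluoroBrite medium, treated with compound (≤0.5% DMSO) for 24 h at 37 °C. Imaging measured percent mNeonGreen-positive cells, with mScarlet used for segmentation; DC50 from four-parameter logistic fit.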

The target of experiment [2] is human E3 ligase component cereblon (CRBN) (Homo sapiens (Human), UniProt Q96SW2). Briefly: Cereblon (CRBN) target engagement, NanoBRET TE Intracellular E3 Ligase Assay in transfected HEK-293T cells. The following applies: read-out: CRBN Binding EC50. In a few lines: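 Live HEK-293T cells co-transfected overnight with NanoLuc-CRBN (CRBN at NanoLuc C-terminus) and DDB1 vectors (10:990 ng) were given CRBN tracer and an 11-point compound series for 2 h at 37° C. BRET read at 450/610 nm with extracellular NanoLuc inhibitor present; IC50 from four-parameter logistic fit.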
human E3 ligase component cereblon (CRBN), sequence (Q96SW2 whole entry): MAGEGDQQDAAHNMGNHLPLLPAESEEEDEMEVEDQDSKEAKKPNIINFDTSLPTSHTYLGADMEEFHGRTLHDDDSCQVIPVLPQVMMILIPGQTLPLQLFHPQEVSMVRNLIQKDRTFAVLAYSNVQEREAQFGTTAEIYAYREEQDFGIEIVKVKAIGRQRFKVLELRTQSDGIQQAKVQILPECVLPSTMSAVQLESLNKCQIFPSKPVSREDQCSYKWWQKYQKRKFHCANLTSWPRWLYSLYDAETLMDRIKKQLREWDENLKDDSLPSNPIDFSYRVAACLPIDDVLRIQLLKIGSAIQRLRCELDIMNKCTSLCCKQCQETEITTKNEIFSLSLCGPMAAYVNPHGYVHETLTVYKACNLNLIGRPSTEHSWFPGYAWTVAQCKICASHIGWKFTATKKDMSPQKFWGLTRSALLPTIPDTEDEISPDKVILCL
human E3 ligase component cereblon (CRBN), sequence (Q16531 whole entry partner): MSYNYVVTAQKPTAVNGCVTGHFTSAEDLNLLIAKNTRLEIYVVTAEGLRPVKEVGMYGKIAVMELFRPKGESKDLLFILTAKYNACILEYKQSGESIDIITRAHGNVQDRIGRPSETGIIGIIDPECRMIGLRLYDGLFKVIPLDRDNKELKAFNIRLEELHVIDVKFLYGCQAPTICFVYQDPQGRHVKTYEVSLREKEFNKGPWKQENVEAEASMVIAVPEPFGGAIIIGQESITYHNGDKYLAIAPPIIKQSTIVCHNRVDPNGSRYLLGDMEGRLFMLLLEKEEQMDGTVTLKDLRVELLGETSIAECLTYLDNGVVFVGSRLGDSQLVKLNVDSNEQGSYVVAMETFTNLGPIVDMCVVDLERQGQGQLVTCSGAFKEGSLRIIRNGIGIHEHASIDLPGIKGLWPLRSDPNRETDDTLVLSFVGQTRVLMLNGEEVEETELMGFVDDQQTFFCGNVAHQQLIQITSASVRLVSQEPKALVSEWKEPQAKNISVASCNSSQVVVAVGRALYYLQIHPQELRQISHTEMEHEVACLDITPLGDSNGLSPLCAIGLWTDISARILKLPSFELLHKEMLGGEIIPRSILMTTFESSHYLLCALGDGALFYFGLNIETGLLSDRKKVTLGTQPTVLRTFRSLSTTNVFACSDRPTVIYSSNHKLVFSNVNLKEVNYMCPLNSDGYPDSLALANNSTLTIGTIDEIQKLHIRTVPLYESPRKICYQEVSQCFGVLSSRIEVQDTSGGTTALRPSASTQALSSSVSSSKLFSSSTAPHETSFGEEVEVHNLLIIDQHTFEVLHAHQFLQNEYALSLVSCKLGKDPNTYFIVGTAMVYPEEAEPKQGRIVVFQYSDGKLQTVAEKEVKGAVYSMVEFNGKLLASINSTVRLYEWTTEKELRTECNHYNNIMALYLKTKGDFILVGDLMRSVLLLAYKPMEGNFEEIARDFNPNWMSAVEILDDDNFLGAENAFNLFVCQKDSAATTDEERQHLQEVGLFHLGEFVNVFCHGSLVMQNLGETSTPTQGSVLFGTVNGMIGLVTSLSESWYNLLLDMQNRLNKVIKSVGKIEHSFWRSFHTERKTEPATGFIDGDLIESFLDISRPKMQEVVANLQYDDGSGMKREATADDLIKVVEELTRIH

In the case of `N#Cc1cc(F)ccc1C1CN([C@H]2CCCC[C@@H]2Oc2ccc3c(c2)CN(C2CCC(=O)NC2=O)C3=O)C1` (single isomer, unassigned) [Compound 44], the “IKZF2 % Degradation @ 1 μM” value in experiment [1] came to 85.6%. Further, the EC50 in experiment [2] was found to be 65 nM.

Take `N#Cc1cc(F)ccc1C1CN([C@H]2CCCC[C@@H]2Oc2ccc3c(c2)CN(C2CCC(=O)NC2=O)C3=O)C1` (single isomer, unassigned) [Compound 45]: the “IKZF2 % Degradation @ 1 μM” value in experiment [1] is recorded as 88%. Further, the EC50 in experiment [2] stood at 22 nM.

Take `N#Cc1ccc(C2CN([C@H]3CCCC[C@@H]3Oc3ccc4c(c3)CN(C3CCC(=O)NC3=O)C4=O)C2)c(Cl)c1` (single isomer, unassigned) [Compound 47]: the “IKZF2 % Degradation @ 1 μM” value in experiment [1] worked out at 86.7%. Further, the EC50 in experiment [2] was determined as 5 nM.

As for `N#Cc1ccc(C2CN([C@H]3CCCC[C@@H]3Oc3ccc4c(c3)CN(C3CCC(=O)NC3=O)C4=O)C2)c(Cl)c1` (single isomer, unassigned) [Compound 48], in experiment [1], the “IKZF2 % Degradation @ 1 μM” value amounted to 78.9%. For the same molecule, the EC50 in experiment [2] is 45 nM.

On to `O=C1CCC(N2Cc3cc(O[C@H]4CCCC[C@@H]4N4CC(c5ccc(F)cc5)C4)ccc3C2=O)C(=O)N1` (single isomer, unassigned) [Compound 51], for which the “IKZF2 % Degradation @ 1 μM” value in experiment [1] is listed as 74.2%. The EC50 in experiment [2] was 18 nM.

Regarding `O=C1CCC(N2Cc3cc(O[C@H]4CCCC[C@@H]4N4CC(c5ccccc5)C4)c(F)cc3C2=O)C(=O)N1` (single isomer, unassigned) [Compound 53], the “IKZF2 % Degradation @ 1 μM” value in experiment [1] is reported as 86.9%. For the same molecule, the 50% effective concentration (EC50) in experiment [2] was found to be 29 nM.

Take `N#Cc1cc(Cl)ccc1C1CN([C@H]2CCCC[C@H]2Oc2ccc3c(c2)CN(C2CCC(=O)NC2=O)C3=O)C1` (stereo partly drawn) [Compound 40, 5-chloro-2-(1-((1S,2R)-2-((2-(2,6-dioxopiperidin-3-yl)-1-oxoisoindolin-5-yl)oxy)cyclohexyl)azetidin-3-yl)benzonitrile]: the “IKZF2 % Degradation @ 1 μM” value in experiment [1] is below 15%. In addition, the EC50 in experiment [2] is 11 nM.

As to `N#Cc1cc(F)ccc1C1CN([C@H]2CCCC[C@H]2Oc2ccc3c(c2)CN(C2CCC(=O)NC2=O)C3=O)C1` (stereo partly drawn) [Compound 46, 2-(1-((1S,2R)-2-((2-(2,6-dioxopiperidin-3-yl)-1-oxoisoindolin-5-yl)oxy)cyclohexyl)azetidin-3-yl)-5-fluorobenzonitrile], the “IKZF2 % Degradation @ 1 μM” value in experiment [1] is reported as below 15%. Besides, the EC50 in experiment [2] was 22 nM.

As to `N#Cc1ccc(C2CN([C@H]3CCCC[C@H]3Oc3ccc4c(c3)CN(C3CCC(=O)NC3=O)C4=O)C2)c(Cl)c1` (stereo partly drawn) [Compound 49, 3-chloro-4-(1-((1S,2R)-2-((2-(2,6-dioxopiperidin-3-yl)-1-oxoisoindolin-5-yl)oxy)cyclohexyl)azetidin-3-yl)benzonitrile], the “IKZF2 % Degradation @ 1 μM” value in experiment [1] is on record as below 15%. The EC50 in experiment [2] was 11 nM.

With `O=C1CCC(N2Cc3cc(O[C@@H]4CCCC[C@H]4N4CCC4c4ccccc4)ccc3C2=O)C(=O)N1` (stereo partly drawn) [Compound 54, 3-(1-oxo-5-(((1R,2R)-2-(2-phenylazetidin-1-yl)cyclohexyl)oxy)isoindolin-2-yl)piperidine-2,6-dione], in experiment [1], the “IKZF2 % Degradation @ 1 μM” value is below 15%. Also, the EC50 in experiment [2] was 89 nM.

With `O=C1CCC(N2Cc3cc(O[C@H]4CCCC[C@@H]4N4CCC4c4ccccc4)ccc3C2=O)C(=O)N1` (stereo partly drawn) [Compound 55, 3-(1-oxo-5-(((1S,2S)-2-(2-phenylazetidin-1-yl)cyclohexyl)oxy)isoindolin-2-yl)piperidine-2,6-dione], in experiment [1], the “IKZF2 % Degradation @ 1 μM” value is reported as 38.1%. Also, the EC50 in experiment [2] is 158 nM.

For `O=C1CCC(N2Cc3cc(O[C@H]4CCCC[C@H]4N4CCC4c4ccccc4)ccc3C2=O)C(=O)N1` (stereo partly drawn) [Compound 56, 3-(1-oxo-5-(((1S,2R)-2-(2-phenylazetidin-1-yl)cyclohexyl)oxy)isoindolin-2-yl)piperidine-2,6-dione], in experiment [1], the “IKZF2 % Degradation @ 1 μM” value is below 15%. Besides, the EC50 in experiment [2] stood at 239 nM.

For the molecule `O=C1CCC(N2Cc3cc(O[C@H]4CCCC[C@@H]4N4CC(c5ccc(F)cc5F)C4)ccc3C2=O)C(=O)N1` (stereo partly drawn) [Compound 57, 3-(5-(((1S,2S)-2-(3-(2,4-difluorophenyl)azetidin-1-yl)cyclohexyl)oxy)-1-oxoisoindolin-2-yl)piperidine-2,6-dione], the “IKZF2 % Degradation @ 1 μM” value in experiment [1] is listed as 85.8%. Moreover, the EC50 in experiment [2] turned out to be 6 nM.

With `O=C1CCC(N2Cc3cc(O[C@H]4CCCC[C@@H]4N4CC(c5ccc(C(F)(F)F)cc5)C4)ccc3C2=O)C(=O)N1` (stereo partly drawn) [Compound 58, 3-(1-oxo-5-(((1S,2S)-2-(3-(4-(trifluoromethyl)phenyl)azetidin-1-yl)cyclohexyl)oxy)isoindolin-2-yl)piperidine-2,6-dione], the “IKZF2 % Degradation @ 1 μM” value in experiment [1] worked out at 85.8%. For the same molecule, the EC50 in experiment [2] stood at 71 nM.

`O=C1CCC(N2Cc3cc(O[C@@H]4CCCC[C@@H]4N4CC(c5ccc(C(F)(F)F)cc5)C4)ccc3C2=O)C(=O)N1` (stereo partly drawn) [Compound 59, 3-(1-oxo-5-(((1R,2S)-2-(3-(4-(trifluoromethyl)phenyl)azetidin-1-yl)cyclohexyl)oxy)isoindolin-2-yl)piperidine-2,6-dione]: in experiment [1], the “IKZF2 % Degradation @ 1 μM” value worked out at 32.7%. For the same molecule, in experiment [2], the EC50 stood at 11 nM.

Regarding `O=C1CCC(N2Cc3cc(OC4CCCCC4N4CC(c5cccc(OC(F)(F)F)c5)C4)ccc3C2=O)C(=O)N1` (stereo not drawn) [Compound 67, 3-(1-oxo-5-((2-(3-(3-(trifluoromethoxy)phenyl)azetidin-1-yl)cyclohexyl)oxy)isoindolin-2-yl)piperidine-2,6-dione], in experiment [1], the “IKZF2 % Degradation @ 1 μM” value worked out at 37.8%. In addition, the EC50 in experiment [2] worked out at 17 nM.

Regarding `O=C1CCC(N2Cc3cc(OC4CCCCC4N4CC(c5ccccc5OC(F)(F)F)C4)ccc3C2=O)C(=O)N1` (stereo not drawn) [Compound 68, 3-(1-oxo-5-((2-(3-(2-(trifluoromethoxy)phenyl)azetidin-1-yl)cyclohexyl)oxy)isoindolin-2-yl)piperidine-2,6-dione], the “IKZF2 % Degradation @ 1 μM” value in experiment [1] was found to be 42.5%. Besides, in experiment [2], the EC50 amounted to 26 nM.

For the molecule `O=C1CCC(N2Cc3cc(OC4CCCCC4N4CC(c5ccccc5C(F)(F)F)C4)ccc3C2=O)C(=O)N1` (stereo not drawn) [Compound 69, 3-(1-oxo-5-((2-(3-(2-(trifluoromethyl)phenyl)azetidin-1-yl)cyclohexyl)oxy)isoindolin-2-yl)piperidine-2,6-dione], the “IKZF2 % Degradation @ 1 μM” value in experiment [1] is on record as below 15%. The concentration for a half-maximal effect (EC50) in experiment [2] was determined as 25 nM.

For the molecule `O=C1CCC(N2Cc3cc(O[C@H]4CCC[C@@H]4N4CCC(c5ccccc5)CC4)ccc3C2=O)C(=O)N1` (stereo partly drawn) [Compound 72, 3-(1-oxo-5-(((1S,2S)-2-(4-phenylpiperidin-1-yl)cyclopentyl)oxy)isoindolin-2-yl)piperidine-2,6-dione], the “IKZF2 % Degradation @ 1 μM” value in experiment [1] turned out to be 38.2%. Besides, the EC50 in experiment [2] was found to be 7 nM.

Regarding `O=C1CCC(N2Cc3cc(O[C@H]4CCC[C@@H]4N4CC(c5ccc(-n6cccn6)cc5)C4)ccc3C2=O)C(=O)N1` (stereo partly drawn) [Compound 73, 3-(5-(((1S,2S)-2-(3-(4-(1H-pyrazol-1-yl)phenyl)azetidin-1-yl)cyclopentyl)oxy)-1-oxoisoindolin-2-yl)piperidine-2,6-dione], in experiment [1], the “IKZF2 % Degradation @ 1 μM” value came to 63.6%. For the same molecule, the EC50 in experiment [2] is 5 nM.

On to `O=C1CCC(N2Cc3cc(O[C@H]4CCCC[C@@H]4N4CCC(c5ccccc5)CC4)ccc3C2=O)C(=O)N1` (stereo partly drawn) [Compound 79, 3-(1-oxo-5-(((1S,2S)-2-(4-phenylpiperidin-1-yl)cyclohexyl)oxy)isoindolin-2-yl)piperidine-2,6-dione], for which the “IKZF2 % Degradation @ 1 μM” value in experiment [1] was below 15%. Also, in experiment [2], the EC50 is 12 nM.

`O=C1CCC(N2Cc3cc(O[C@H]4CCCC[C@@H]4N4CC(c5cccc(OC(F)F)c5)C4)ccc3C2=O)C(=O)N1` (stereo partly drawn) [Compound 80, 3-(5-(((1S,2S)-2-(3-(3-(difluoromethoxy)phenyl)azetidin-1-yl)cyclohexyl)oxy)-1-oxoisoindolin-2-yl)piperidine-2,6-dione]: in experiment [1], the “IKZF2 % Degradation @ 1 μM” value was 76.7%. Moreover, the EC50 in experiment [2] came to 8 nM.

For `O=C1CCC(N2Cc3cc(O[C@H]4CCCC[C@@H]4N4CC(c5ccc(OC(F)F)cc5)C4)ccc3C2=O)C(=O)N1` (stereo partly drawn) [Compound 81, 3-(5-(((1S,2S)-2-(3-(4-(difluoromethoxy)phenyl)azetidin-1-yl)cyclohexyl)oxy)-1-oxoisoindolin-2-yl)piperidine-2,6-dione], in experiment [1], the “IKZF2 % Degradation @ 1 μM” value came to 77.6%. Also, the EC50 in experiment [2] is 9 nM.

With `N#Cc1ccc(C2CN(C3CCCC3Oc3ccc4c(c3)CN(C3CCC(=O)NC3=O)C4=O)C2)cc1` (stereo not drawn) [Compound 98, 4-(1-(2-((2-(2,6-dioxopiperidin-3-yl)-1-oxoisoindolin-5-yl)oxy)cyclopentyl)azetidin-3-yl)benzonitrile], the “IKZF2 % Degradation @ 1 μM” value in experiment [1] was below 15%. Besides, the EC50 in experiment [2] came to 32 nM.

As to `N#Cc1ccc(C2CN(C3CCCC3Oc3ccc4c(c3)CN(C3CCC(=O)NC3=O)C4=O)C2)cc1F` (stereo not drawn) [Compound 110, 4-(1-(2-((2-(2,6-dioxopiperidin-3-yl)-1-oxoisoindolin-5-yl)oxy)cyclopentyl)azetidin-3-yl)-2-fluorobenzonitrile], the “IKZF2 % Degradation @ 1 μM” value in experiment [1] came to 48.8%. The EC50 in experiment [2] was determined as 19 nM.

As to `O=C1CCC(N2Cc3cc(O[C@H]4CCCC[C@@H]4N4CC(c5cccc(N6CCOCC6)c5)C4)ccc3C2=O)C(=O)N1` (stereo partly drawn) [Compound 112, 3-(5-(((1S,2S)-2-(3-(3-morpholinophenyl)azetidin-1-yl)cyclohexyl)oxy)-1-oxoisoindolin-2-yl)piperidine-2,6-dione], the “IKZF2 % Degradation @ 1 μM” value in experiment [1] is reported as 72.6%. The EC50 in experiment [2] was 25 nM.

As for `N#Cc1cccc(C2CN([C@H]3CCCC[C@@H]3Oc3ccc4c(c3)CN(C3CCC(=O)NC3=O)C4=O)C2)c1` (stereo partly drawn) [Compound 113, 3-(1-((1S,2S)-2-((2-(2,6-dioxopiperidin-3-yl)-1-oxoisoindolin-5-yl)oxy)cyclohexyl)azetidin-3-yl)benzonitrile], the “IKZF2 % Degradation @ 1 μM” value in experiment [1] is 73.7%. For the same molecule, the EC50 in experiment [2] came out at 13 nM.
